In publication PMC12040169 (PLOS Biology, 2025):

Experiment: in vitro
Settings: human, hela cells, % viability

SMILES	viability at 28.5 h, 10 µM [%]
O=C1NCC2(CCN(C(=O)C3CCCC3)CC2)Oc2ccccc21 [CBK282920]	94.1
CN1CCN(CCC(=O)N/N=C/c2ccccc2O)CC1 [CBK261497]	93.1
O=C(NCCCN1CCOCC1)c1ccc2nccnc2c1 [CBK268704]	114
CN1CCN(Cc2c(C(C)(C)C)[nH]c3ncccc23)CC1 [CBK285334]	104
CCCCNc1cc(N2CCN(c3cnn(C)c3)C(=O)C2)nc(N)n1 [CBK306260]	87.8
Cc1cccc(OCC(=O)Nc2ccc(S(=O)(=O)N3CCOCC3)cc2)c1 [CBK264110]	94.6
CN1Cc2ccccc2OC2(CCCN(C(=O)C3CC3)CC2)C1 (centres unmarked) [CBK285131]	110
c1ccc2c(Sc3cnccn3)cccc2c1 [CBK085841]	90.7
COc1cc(C)c2c(N)c(C(C)=O)sc2n1 [CBK115336]	94
CC(C)(C)c1cc(/C=N/Nc2nc3ccccc3[nH]2)cc(C(C)(C)C)c1O [CBK262247]	90.2
O=c1[nH]nc2c(SC3CCCCC3)nccn12 [CBK288471]	69.4
CC1CCc2nn(CCNC(=O)Cc3ccccc3F)c(=O)cc2C1 (centres unmarked) [CBK284482]	97.2
Cn1c(=O)c(-c2ccccc2)nc2ccccc21 [CBK016192]	143
O=C(COc1cccnc1)NCc1ccc(-c2csnn2)cc1 [CBK149312]	93.1
Cc1n[nH]c(C)c1Sc1nnc(O)nc1O [CBK027833]	87.2
Cc1ccc2cc(CN(Cc3ccc(N(C)C)cc3)C(=O)NC3CCCCC3)c(=O)[nH]c2c1C [CBK132070]	97.3
CC(=O)Nc1ccc(S(=O)(=O)N2CCN(C(=O)COc3ccc4ccccc4c3)CC2)cc1 [CBK264164]	103
COc1cccc2c1cc(C(=O)NCCCc1ccccn1)n2C [CBK283283]	83.7
CC(C)(C)CC(=O)N1CCCC1c1n[nH]cc1-c1ccncc1 (centres unmarked) [CBK283430]	88.5
CCCCc1ccc(NC(=S)NC(=O)c2ccc(OC)c(OC)c2)cc1 [CBK157691]	100
CCN1C(=O)COC[C@@H]1[C@H](O)c1ccc(NC(=O)c2ccc(C#N)cc2)cc1 [CBK289689]	91.6
O=C(COc1ccc(-c2ccccc2)cc1Cl)N1CCN(C(=O)C2CC2)CC1 [CBK295640]	96.8

SMILES	viability at 28.5 h, 10 µM [%]
CCN(Cc1ccc(C#N)cc1F)C(=O)NC(C)c1nncn1C (centres unmarked) [CBK305888]	119
CN1CCN(C(=O)CNS(=O)(=O)c2ccccc2)CC1 [CBK265767]	92.6
Clc1ccc(-c2nn[nH]n2)c(Cl)c1 [CBK018932]	89.7
Cc1c(CN(C)C(=O)c2ccc(COc3ccc(Cl)cc3)cc2)cnn1C [CBK265756]	98.9
Cc1ccccc1C(=O)NCC(=O)Nc1ccc2cc(Br)cnc2n1 [CBK063312]	96.5
Cc1ccc(C2(CN3CCC(NC(=O)c4cc[nH]n4)CC3)CC2)cc1 [CBK285360]	97.8
Cc1nc2sccn2c1CN1CCc2sccc2C1C (centres unmarked) [CBK282807]	92.4
CCOC(=O)c1cnc(NS(=O)(=O)c2cccc(Cl)c2C)nc1C [CBK004707]	105
COc1cc(-c2nccnc2NCc2ccccn2)cc(OC)c1OC [CBK036936]	96.8
Cc1cnn(C)c1CN1CCNC(=O)C1c1ccccc1C(F)(F)F (centres unmarked) [CBK304260]	86.2
O=C(NCc1cccc2ccccc12)N1CCN(Cc2ccccc2)CC1 [CBK155628]	92.2
c1coc(-c2cn3ccnc3c(Nc3ccc4[nH]ccc4c3)n2)c1 [CBK037361]	91.9
CN(C)CCNC(=O)c1cccc(-c2cn3ccnc3c(NCc3ccccc3)n2)c1 [CBK066365]	102
Cn1ncc(N2CCC(CNC(=O)COc3ccc(Cl)cc3)C2)cc1=O (centres unmarked) [CBK306517]	79
COc1ccc(CCCC(=O)Nc2cc3cccnc3c(Br)n2)cc1 [CBK119486]	99.6
O=C(CN1C(=O)CCC1=O)Nc1nnc(-c2ccc3c(c2)CCCC3)o1 [CBK287427]	80.2
COCCN(Cc1cn2cccc(C(=O)OC)c2n1)Cc1ccco1 [CBK305366]	97.8
CN1C(=O)C2(CC(=O)N(CC3CCCCC3)C2=O)c2cc(F)ccc21 (centres unmarked) [CBK075257]	106
CN(Cc1cc(Br)cs1)C(=O)CCc1c[nH]c2ccccc12 [CBK298268]	108
CN1C(=O)C(CC(=O)NCCCc2ccc(F)cc2)c2ccccc21 (centres unmarked) [CBK282474]	106
c1ccc(CN2CCN(c3nccnc3OCCN3CCOCC3)CC2)cc1 [CBK082885T]	104
COc1ccc(S(=O)(=O)Nc2cccc(C(=O)N3CCOCC3)c2)cc1OC [CBK039010]	82.7
